Data published in patent US6121241A, “Anticoagulant peptide aldehyde derivatives” (Gyogyszerkutato Intezet Kft., priority 1996, dated 2000).
Structures can show the parent of a compound that is named as a salt. Where two headings read alike, the source gives them in different places. One block for each compound: values may come before it. Square brackets hold non-standard residues; d marks the D form. Peptide text beside a SMILES is read from it. * marks the point of attachment. 1Nal = N[C@@H](Cc1cccc2ccccc12)C(=O)O; Boc = CC(C)(C)OC(=O)*

Tests used:
thrombin [1] = molecular target: T1, thrombin (Homo sapiens, UniProt P00734); details: specific fXa inhibitors, literature; cited from earlier work
T1 construct: The isolated active factor (e.g. thrombin, fXa) and its chromogen or fluorogen peptide-amide substrate are reacted

human factor Xa = molecular target: T2, human factor Xa (Homo sapiens, UniProt P00742); test: Inhibition of the amidolytic effect of factor Xa in solution on Bz-Ile-Glu-Gly-Arg-pNA (method M6); assay type: biochemical
T2 construct: purchased SIGMA
T2 sequence (P00742 235-488 limits assumed): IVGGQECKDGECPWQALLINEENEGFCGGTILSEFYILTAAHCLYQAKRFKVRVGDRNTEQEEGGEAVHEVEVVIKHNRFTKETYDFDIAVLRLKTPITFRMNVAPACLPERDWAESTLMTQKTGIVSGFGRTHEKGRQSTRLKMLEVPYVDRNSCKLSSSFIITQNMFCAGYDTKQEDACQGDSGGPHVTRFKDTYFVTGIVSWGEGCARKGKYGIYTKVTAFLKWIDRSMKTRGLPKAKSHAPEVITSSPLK
T2 sequence (P00742 41-179 partner limits assumed): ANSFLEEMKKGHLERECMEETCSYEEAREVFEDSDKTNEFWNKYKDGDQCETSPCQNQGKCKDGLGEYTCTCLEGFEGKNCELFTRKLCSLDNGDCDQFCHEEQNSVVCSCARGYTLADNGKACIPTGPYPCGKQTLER
Procedure: (§1) Anticoagutant activity (i.e. inhibition of the proteolytic reactions in the process) is measured by anticoagulant tests, e.g. by the thrombin time (TT), activated partial thromboplastin time (APTT) and prothrombin time (PT) tests [E. J. W. Bovie et al; Mayo Clinic Laboratory Manual of Hemostasis; W. B. Sanuders Co., Philadelphia (1971)]. Plasma, inhibited in spontaneous coagulation, e.g. citrate-plasma, is made to coagulate and the required coagulation time is measured. Upon the action of anticoagulants the coagulation time is prolonged proportionally to the inhibition of the reaction(s) in the process. The anticoagulant effect can be characterized by the substance concentration required to double the coagulation time compared to the control (IC50). The effect of anticoagulants on individual coagulant proteases is measured by the amidolytic method [R. Lottenberg et al., Methods in Enzymol. 80, 341 (1981); G. Cleason, Blood Coagulation and Fibrinolysis 5, 411 (1994)]. The isolated active factor (e.g. thrombin, fXa) and its chromogen or fluorogen peptide-amide substrate are reacted in the presence or absence of the inhibitor, resp. The enzyme inhibiting action is characterized by the inhibitory constant (IC50) measured during amidolysis.
(§2) The in vitro anticoagulant effect of the compounds of general formula (I) was measured by the prothrombin time (PT), activated partial thromboplastin time (APTT) and thrombin time (TT) tests [D. Bagdy et at., Thromb. Haemost. 67, 325 (1992)]. The Xa-factor-inhibiting effect of the compounds was also determined by using the Bz-Ile-Glu-Gly-Arg-pNA chromogen substrate (see method M6).
Assay of the Inhibition of Factor Xa in Solution on a 96-well Microtiter Plate
a) 1.3 U/mL factor Xa (human, SIGMA), 0.1-1.0-10 and 100 μg/mL solutions in phosphate buffer (0.1 M sodium phosphate and 0.05 M sodium chloride, pH 7.4) of the peptide inhibitors and […] solutions of the substrate Bz-Ile-Glu-Gly-Arg-pNA in distilled water are used.
b) Three reaction mixtures are prepared from the control and each peptide solution. 30 μL each of the peptide and the buffer, serving as control, 30 μL factor Xa, 90 μL butter and 150 μL substrate are placed in the wells of the plate, then after 10 minutes the extinction values are read at 405 nm The procedure is continued as described in Method M2, point c).

[2] = test system: citrate plasma coagulation (PT); test: Prothrombin time (PT) plasma clotting test; assay type: biochemical; details: concentration doubling clotting time
Procedure: as §1
(§3) In the TT test coagulation is initiated by the thrombin added to the citrate plasma. In the system 22 pmol/mL of thrombin is functioning and in the presence of plasma components its inhibition can be measured on the fibrinogen (one of the natural substrates of thrombin) present In the APTT and PT tests the full coagulation process is made to proceed. Depending on the activator fX is activated by the extrinsic or intrinsic pathway. The generated fXa activates prothrombin to thrombin which, in turn, triggers plasma coagulation. In the test the coagulation time is prolonged if the enzymes or one of them is inhibited by the inhibitor. In the APTT and PT tests at most 40 pmole/ml Xa is generated (this is the full amount of factor X present in both systems) while 150 pmole/ml (APTT) and 350 pmole/ml (PT) are generated from thrombin [B Kaiser et al., Thromb. Res. 65, 157 (1992)].
as §2

[3] = test system: citrate plasma coagulation (APTT); test: Activated partial thromboplastin time (APTT) plasma clotting test; assay type: biochemical; details: concentration doubling clotting time
Procedure: as §1, §3, §2

thrombin [4] = molecular target: T1, thrombin; test: Thrombin time (TT) plasma clotting test; assay type: biochemical; details: concentration doubling clotting time
Procedure: as §1, §3, §2

fXa = fXa (Homo sapiens, UniProt P00742); details: Z-D-Arg-Gly-Arg-pNA substrate; according to the literature; read-out: IC50, amidolytic activity of fXa; cited from earlier work
Chain of fXa (P00742 235-488 limits assumed): as the sequence (P00742 235-488 limits assumed) above
Chain of fXa (P00742 41-179 partner limits assumed): as the sequence (P00742 41-179 partner limits assumed) above

plasmin (PL) = plasmin (PL) (Homo sapiens, UniProt P00747); test: Fibrin-plate method, plasmin; assay type: biochemical; details: for IC50: fibrin-plate method, hydrolyzed area reduced by 50%
Chain of plasmin (PL) (P00747 581-810 limits assumed, species assumed): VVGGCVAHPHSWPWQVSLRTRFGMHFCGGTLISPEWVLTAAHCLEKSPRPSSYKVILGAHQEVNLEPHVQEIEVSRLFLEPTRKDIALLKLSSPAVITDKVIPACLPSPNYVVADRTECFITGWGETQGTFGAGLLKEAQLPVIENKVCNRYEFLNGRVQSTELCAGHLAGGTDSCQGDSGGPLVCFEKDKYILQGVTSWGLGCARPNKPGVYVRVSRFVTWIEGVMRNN
Chain of plasmin (PL) (P00747 97-580 partner limits assumed, species assumed): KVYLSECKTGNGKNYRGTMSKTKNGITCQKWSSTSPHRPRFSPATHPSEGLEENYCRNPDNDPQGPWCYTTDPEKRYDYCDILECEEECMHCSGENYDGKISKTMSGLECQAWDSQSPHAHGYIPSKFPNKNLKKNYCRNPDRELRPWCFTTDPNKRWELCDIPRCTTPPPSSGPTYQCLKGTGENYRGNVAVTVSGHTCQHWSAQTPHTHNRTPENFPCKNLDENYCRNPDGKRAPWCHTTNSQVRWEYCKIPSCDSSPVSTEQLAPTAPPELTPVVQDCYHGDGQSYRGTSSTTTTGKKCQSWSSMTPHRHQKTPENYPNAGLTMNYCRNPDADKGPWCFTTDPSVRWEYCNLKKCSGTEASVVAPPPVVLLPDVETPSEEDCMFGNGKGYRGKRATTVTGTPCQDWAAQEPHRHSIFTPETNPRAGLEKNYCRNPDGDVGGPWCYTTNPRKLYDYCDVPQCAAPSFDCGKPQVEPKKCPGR
Text: (§4) The inhibitory effect of the new compounds of the invention on plasmin (PL) as well as on plasmin formation induced by tissue plasminagen activator (tPA) and urokinase (UK) was studied by the […] [D. Bagdy et al.; Thromb. Haemost. 67, 325 (1992)]. Compounds C1 and C3 served as controls. […] V. Jackson et al., J. Cardiovasc. Pharmacol. 21, 587 (1993)].
(§5) ^a IC50 = peptide concentration (mM) where the hydrolyzed area o
(§6) the fibrin plate is reduced by 50% compared to the control

[5] = molecular target: tissue plasminogen activator (tPA) (Homo sapiens, UniProt P00750); test: Fibrin-plate method, plasmin formation induced by tPA; assay type: biochemical; details: for IC50: fibrin-plate method, hydrolyzed area reduced by 50%
Chain of tissue plasminogen activator (tPA) (P00750 36-562, species assumed): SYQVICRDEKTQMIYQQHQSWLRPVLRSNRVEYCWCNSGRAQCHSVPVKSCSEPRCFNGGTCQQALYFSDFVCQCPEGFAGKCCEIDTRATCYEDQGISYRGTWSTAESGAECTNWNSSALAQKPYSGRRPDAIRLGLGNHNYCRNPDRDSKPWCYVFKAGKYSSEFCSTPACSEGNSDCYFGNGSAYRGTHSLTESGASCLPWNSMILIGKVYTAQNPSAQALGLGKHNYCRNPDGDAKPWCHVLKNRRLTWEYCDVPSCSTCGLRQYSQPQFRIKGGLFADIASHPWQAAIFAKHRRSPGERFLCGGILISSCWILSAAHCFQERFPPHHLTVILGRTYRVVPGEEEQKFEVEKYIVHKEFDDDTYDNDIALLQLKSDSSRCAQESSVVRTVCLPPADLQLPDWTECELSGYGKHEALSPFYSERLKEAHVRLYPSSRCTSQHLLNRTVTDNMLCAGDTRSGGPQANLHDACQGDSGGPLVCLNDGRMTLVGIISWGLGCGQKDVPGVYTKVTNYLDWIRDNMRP
Text: as §4, §5, §6

urokinase (UK) = urokinase (UK) (Homo sapiens, UniProt P00749); test: Fibrin-plate method, plasmin formation induced by urokinase; assay type: biochemical; details: for IC50: fibrin-plate method, hydrolyzed area reduced by 50%
Text: as §4, §5, §6

[6] = molecular target: T3, plasma clot entrapped thrombin (Homo sapiens, UniProt P00734); test: Inhibition of thrombin entrapped in plasma clot (methods M1, M3); assay type: biochemical; details: platelet-rich human plasma clot; Tos-Gly-Pro-Arg-pNA substrate
T3 construct: Here prothrombin is converted to thrombin; from tissue; host or cells: clot of recalcified platelet-rich human citrate plasma
Procedure: (§7) The plasma clot was obtained by the recalcification of platelet-rich human citrate plasma and fibrin gel by the coagulation of human fibrinogen with human thrombin Z-D-Arg-Gly-Arg-pNA and Tos Gly-Pro-Arg-pNA were used as substrates for measuring the activity of factor Xa and thrombin (methods M1-M5).
Preparation of Plasma Clot
a) Platelet-rich plasma (PRP) is prepared by centrifuging a 9:1 mixture of human blood and 3.8% aqueous sodium citrate solution (1/2) for 5 minutes at 240×g.
b) 200 μL of PRP are placed in each reaction vessel, 80 μL of 40 mM calcium chloride solution is added and the mixture is left to stand at room temperature for one hour. The plasma clot formed is rinsed mildly with 6×2 ml of 0.9% sodium chloride solution followed by 5 minute sedimentation to remove the dissolved enzymes (factor Xa and thrombin). The thrombin content of the washings is assayed as follows.
c) To 400 μL of washing liquid 100 μL of 1 mM Tos-Gly-Pro-Arg-pNA substrate solution is added and the mixture is incubated for 30 minutes at 37° C., then the reaction is stopped by the addition of 100 μL of 50% acetic acid. 150 μL portions of this mixture are transferred into the wells of the 96-well microtiter plate and the extinction is measured at 405 nm (ELISA READER SLT Laborinstrument GmbH, Austria). When the washing is successful, the extinction is less than 5% of the control
Assay of the Inhibition of Thrombin Entrapped in Plasma Clot
a) Peptide inhibitor solutions are prepared by the process described in Method M2, point a).
b) After draining the washing liquid, 400 μL of the peptide solution (3 parallel samples for each concentration) and 400 μL of buffer, serving as control, are placed on the clot (Method M1) and the mixture is incubated for 5 minutes at 37° C. Thereafter 100 μL of […] Tos-Gly-Pro-Arg-pNA substrate solution is added and incubation at 37° C. is continued for further 30 minutes, then the reaction is stopped by the addition of 100 μL of 50% acetic acid. The operation is continued as described in Method M2, point c).

[7] = molecular target: T4, fibrin-gel bound thrombin (Homo sapiens, UniProt P00734); test: Inhibition of thrombin bound to fibrin-gel (methods M4, M5); assay type: biochemical; details: Tos-Gly-Pro-Arg-pNA substrate
T4 construct: Here prothrombin is converted to thrombin; purchased SIGMA
Procedure: as §7
Preparation of Fibrin-Gel
a) 200 μL of 6 mg/mL human fibrinogen (SIGMA), 25 μL of 25 NIH U/mL human thrombin (SIGMA) and 40 μL of 100 mM calcium chloride solution are placed in each reaction vessel and the mixtures are stored for one hour at 20-22° C. The fibrin formed is rinsed mildly with 3×2 ml of isotonic saline solution followed by sedimentation to remove the thrombin content of the solution. The efficacy of rinsing is controlled by the process described in Method M1, point c).
Assay of the Inhibition of Thrombin Bound to Fibrin-Gel
a) 0.1-1.0-10 and 100 μg/ml solutions are prepared with Hepes/NaCl buffer (0.01 M Hepes and 0.1 M sodium chloride, pH=7.4).
b) Thereafter the procedure described in Method M3, point b) is followed.

[8] = test system: citrate plasma coagulation (PT); details: Table 1; published value; read-out: B: IC50, PT; cited from earlier work
[9] = test system: citrate plasma coagulation (APTT); details: Table 1; published value; read-out: B: IC50, APTT; cited from earlier work
[10] = Table 1, Bz-Ile-Glu-Gly-Arg-pNA chromogen substrate, read-out: A: IC50 (fXa inhibiting effect)
[11] = Table 1, read-out: B: IC50, APTT
[12] = Table 2, Bz-Ile-Glu-Gly-Arg-pNA, isolated human factor Xa, read-out: B: IC50 (factor Xa inhibiting effect)
[13] = Table 2, read-out: A: IC50, APTT
[14] = related to the activity of C1 (1/IC50 = 1)

Compound: TAP: 60-member polypeptide isolated from tick, fXa inhibitor (YNRLCIKPRDWIDECDSNEGGERAYFRNGKGGCDSFWICPEDHTGADYYSSYRDCFNACI; UniProt P17726 1-60, looked up)
- activity in the TT test (thrombin [1]): fail to exert any activity

Compound: N=C(N)NCCC[C@@H](C=O)NC(=O)[C@H]1CCCN1C(=O)C(O)C1CCCC1.N=C(N)NCCC[C@@H](C=O)NC(=O)[C@H]1CCCN1C(=O)C(O)C1CCCC1.O=S(=O)(O)O (stereo partly drawn) [Compound 2, D-2-Cyclopentyl-2-hydroxyacetyl-L-prolyl-L-arginine aldehyde hemisulfate]
- IC50 (human factor Xa; [12]): 107 nM
- IC50 ([2]; Table 2, read-out: A: IC50, PT): 2030 nM
- IC50 [3, 13]: 710 nM
- IC50 (thrombin [4]; Table 2, read-out: A: IC50, TT): 100 nM
- B: relative efficacy, PL (plasmin (PL)): 0.13
- IC50 (plasmin (PL)): 390000 nM
- times lower activity than compound C3, first enzyme (PL) (plasmin (PL); versus C3 of Table 4): 7.5
- B: relative efficacy, tPA [5]: 1.2
- IC50 [5]: 112000 nM
- times lower activity than compound C3, second enzyme (tPA) ([5]; versus C3 of Table 4): 12
- B: relative efficacy, UK (urokinase (UK)): 0.6
- IC50 (urokinase (UK)): 137000 nM
- times lower activity than compound C3, third enzyme (UK) (urokinase (UK); versus C3 of Table 4): 39

Compound: CC(C)(C)OC(=O)N[C@H](Cc1ccccc1)C(=O)N1CCC[C@H]1C(=O)N[C@H](C=O)CCCNC(=N)N [Boc-D-Phe-Pro-Arg-H]
- IC50 (plasmin (PL)): 12000 nM
- B: relative efficacy, PL (plasmin (PL); [14]): 4.5
- IC50 [5]: 6000 nM
- B: relative efficacy, tPA [5, 14]: 22.0
- IC50 (urokinase (UK)): 3000 nM
- B: relative efficacy, UK (urokinase (UK); [14]): 27.3

Compound: CC(=N)N1CC[C@H](Oc2ccc([C@H](Cc3ccc4ccc(C(=N)N)cc4c3)C(=O)O)cc2)C1 [Compound C2, (+)-(2S)-2-[4[[(3S)-1-acetimidoyl-3-pyrrolidinyl]oxy]phenyl]-3-[7[amidino-2-naphthyl]-propionic acid hydrochloride pentahydrate]
- IC50 [8]: 520 nM
- IC50 [9]: 970 nM
- activity in the TT test (thrombin [1]): fail to exert any activity

Continued, in another order:

- IC50 (human factor Xa; [10]): 64 nM
- IC50 ([2]; Table 1, read-out: B: IC50, PT): 19300 nM
- IC50 [3, 11]: 4590 nM
- IC50 (thrombin [4]; Table 1, read-out: B: IC50, TT): 870 nM
Compound: 4-MeP-Asp-Pro-Arg-H [Compound C3]
- IC50 (fXa): 57 nM

- IC50 (human factor Xa; [12]): 247 nM
- IC50 ([2]; Table 2, read-out: A: IC50, PT): 2140 nM
- IC50 [3, 13]: 790 nM
- IC50 (thrombin [4]; Table 2, read-out: A: IC50, TT): 220 nM
- IC50 [6]: 270 nM
- IC50 [7]: 220 nM
Compound: NC(N)=NCCC[C@@H](C=O)NC(=O)[C@@H]1CCCN1C(=O)[C@H](O)C1CCCCC1 [Compound C5, D-Hma-Pro-Arg-H]

- IC50 (human factor Xa; [10]): 86 nM
- IC50 ([2]; Table 1, read-out: B: IC50, PT): 53600 nM
- IC50 [3, 11]: 9960 nM
- IC50 (thrombin [4]; Table 1, read-out: B: IC50, TT): 17200 nM
Compound: CC(C)(C)OC(=O)N[C@H](Cc1ccccc1)C(=O)N[C@@H](Cc1cccc2ccccc12)C(=O)N[C@H](C=O)CCCN=C(N)N [Compound C4, Boc-D-Phe-Nal(1)-Arg-H] (Boc-[dF]-[1Nal]-Arg-aldehyde)
- IC50 (fXa): 30 nM
